Reference: patent US12194198B2, “High strength porous materials for controlled release” (Access Vascular, Inc., priority 2018, dated 2025)

Assays:
[1] = system: P. aeruginosa; settings: cited from earlier work
[2] = Chlorhexidine free base saturation in methanol; assay type: physicochemical; settings: CHX/methanol solutions
From the text: Solution was made with […] chlorhexidine free base (CHX) in methanol. CHX/methanol solutions appeared to reach saturation around 1000 ppm. Serial dilutions were made from the solution, where the UV-Vis would become overloaded when concentrations were above 200 ppm. In order to avoid overloading the UV-Vis, concentrations below 100 ppm were used to collect absorbance values. FIG. 8 and Table 6 show the absorbance data collected from the chlorhexidine free base standards.

[3] = system: A. baumannii; settings: cited from earlier work

saturation concentration in methanol [2]: around 1000 ppm
SMILES: [H]/N=C(\N/C(=N/[H])NCCCCCCNC(=N)NC(=N)Nc1ccc(Cl)cc1)Nc1ccc(Cl)cc1 [chlorhexidine]
largest known minimum bactericidal concentration (MBC) [1]: 128 µg/mL | largest known minimum inhibitory concentration (MIC) [3]: 64 µg/mL
